Columns and labels:
Assay in all cases: biochemical
ZmDRIK1-R187-P492 = biological target: T1, ZmDRIK1-R187-P492 (Zea mays, UniProt C0P4K9); conditions: read-out: dTm B, DSF, Boltzmann fit, 0.1% DMSO
T1 construct: kinase domain, R187-P492
T1 sequence (C0P4K9 1-514): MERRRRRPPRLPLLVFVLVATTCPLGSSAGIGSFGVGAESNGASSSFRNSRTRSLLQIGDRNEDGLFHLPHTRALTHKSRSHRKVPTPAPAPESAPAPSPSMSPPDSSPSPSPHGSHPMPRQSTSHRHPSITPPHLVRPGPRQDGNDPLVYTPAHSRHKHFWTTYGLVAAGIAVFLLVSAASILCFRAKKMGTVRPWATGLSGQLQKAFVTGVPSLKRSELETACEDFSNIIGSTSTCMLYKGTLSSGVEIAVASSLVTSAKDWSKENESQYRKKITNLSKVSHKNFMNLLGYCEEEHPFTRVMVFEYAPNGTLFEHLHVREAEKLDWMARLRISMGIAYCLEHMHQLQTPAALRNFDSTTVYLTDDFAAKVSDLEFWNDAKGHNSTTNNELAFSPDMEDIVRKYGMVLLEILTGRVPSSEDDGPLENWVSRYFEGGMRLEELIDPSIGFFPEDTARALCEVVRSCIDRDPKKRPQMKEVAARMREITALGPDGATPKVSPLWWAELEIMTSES

ZmDRIK1-K217-S514 = biological target: T2, ZmDRIK1-K217-S514 (Zea mays, UniProt C0P4K9); conditions: read-out: dTm B, sheet ZmDRIK1-K217-S514;; DSF, Boltzmann fit, 0.1% DMSO
T2 construct: kinase domain, K217-S514
T2 sequence (C0P4K9 1-514): T1 sequence (C0P4K9 1-514)

[1] = biological target: T3, ZmDRIK1 (DROUGHT RESPONSIVE INACTIVE KINASE 1), kinase domain (Zea mays, UniProt C0P4K9); conditions: read-out: dTm B, sheet ZmDRIK1-R187-S514;; DSF, Boltzmann fit, 0.1% DMSO
T3 construct: gene ZEAMMB73_Zm00001d028770; ZmDRIK1-KD R187-S514 (kinase domain)
T3 sequence (C0P4K9 187-514): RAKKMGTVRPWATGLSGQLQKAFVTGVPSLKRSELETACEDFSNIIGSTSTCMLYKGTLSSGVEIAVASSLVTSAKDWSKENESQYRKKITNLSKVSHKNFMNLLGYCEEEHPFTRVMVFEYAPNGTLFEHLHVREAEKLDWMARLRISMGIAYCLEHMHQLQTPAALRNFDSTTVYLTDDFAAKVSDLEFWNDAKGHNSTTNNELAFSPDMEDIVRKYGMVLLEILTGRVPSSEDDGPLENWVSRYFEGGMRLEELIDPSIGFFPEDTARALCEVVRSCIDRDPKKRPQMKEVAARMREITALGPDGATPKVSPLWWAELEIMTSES

ZmDRIK1-K217-P492 = biological target: T4, ZmDRIK1-K217-P492 (Zea mays, UniProt C0P4K9); conditions: read-out: dTm B, sheet ZmDRIK1-K217-P492;; DSF, Boltzmann fit, 0.1% DMSO
T4 construct: kinase domain, K217-P492
T4 sequence (C0P4K9 1-514): T1 sequence (C0P4K9 1-514)

Compound | ΔTm at 10 µM (ZmDRIK1-R187-P492) | ΔTm at 10 µM (ZmDRIK1-K217-S514) | ΔTm at 10 µM [1] | ΔTm at 10 µM (ZmDRIK1-K217-P492)
Cn1cc(C2=C(c3ccc(Cl)cc3Cl)C(=O)NC2=O)c2ccccc21 [SB216763] | -0.115 °C | -0.35 °C | -0.887 °C | -1.29 °C
C[C@@H](N)[C@H]1CC[C@H](C(=O)Nc2ccncc2)CC1 [Y-27632 2HCl] | -0.155 °C | -0.475 °C | -0.584 °C | -1.25 °C
NC1(C(=O)N[C@@H](CCO)c2ccc(Cl)cc2)CCN(c2ncnc3[nH]ccc23)CC1 [AZD5363] | -0.504 °C | -0.652 °C | -0.693 °C | -1.06 °C
CCC(=O)Nc1cccc(Oc2nc(Nc3ccc(N4CCN(C)CC4)cc3OC)ncc2Cl)c1 [WZ4003] | -0.432 °C | -0.358 °C | -0.786 °C | -1.1 °C
O=C(Nc1nc2cccc(-c3ccc(CN4CCS(=O)(=O)CC4)cc3)n2n1)C1CC1 [Filgotinib (GLPG0634)] | -0.607 °C | -0.594 °C | -0.878 °C | -1.16 °C
COc1ccc(Cl)c(Nc2nc3ccccc3nc2NS(=O)(=O)c2cccc(NC(=O)C(C)(C)N)c2)c1 [XL147] | -0.0333 °C | 0.807 °C | -0.972 °C | 0.134 °C
COc1cc(N2CCC(N)CC2)ccc1Nc1ncc(Cl)c(-c2c[nH]c3ccccc23)n1 [AZD3463] | 0.74 °C | 0.133 °C | -0.307 °C | -0.184 °C
Cc1cnc(NC(=O)Nc2cc(Br)c(C)cc2OC[C@@H]2CNCCO2)cn1 [LY2603618] | -0.548 °C | -0.525 °C | -0.608 °C | -0.992 °C
CC1(COc2ccc3c(c2)ncn3-c2ccc3cccc(N4CCC(N)CC4)c3n2)COC1 [Crenolanib (CP-868596)] | -0.209 °C | -0.0308 °C | -0.526 °C | -0.453 °C
Nc1nc(Nc2ccc(S(N)(=O)=O)cc2)nn1C(=O)c1c(F)cccc1F [JNJ-7706621] | -0.0807 °C | -0.319 °C | -0.794 °C | -0.924 °C
c1cncc(CN2CCC(n3ncc4c(N5CCOCC5)nc(-c5ccc6[nH]ccc6c5)nc43)CC2)c1 [WAY-600] | -0.498 °C | -0.731 °C | -0.643 °C | -1.19 °C
CN(C)CCCn1cc(C2=C(c3c[nH]c4ccccc34)C(=O)NC2=O)c2ccccc21 [GF109203X] | -0.337 °C | -0.324 °C | -0.748 °C | -1.16 °C
COc1cc(Nc2c(C#N)cnc3cc(OCCCN4CCN(C)CC4)c(OC)cc23)c(Cl)cc1Cl [Bosutinib (SKI-606)] | -0.491 °C | -0.473 °C | -0.814 °C | -1.46 °C
Cn1cc(-c2ccc3nnc(C(F)(F)c4ccc5ncccc5c4)n3n2)cn1 [JNJ-38877605] | -0.343 °C | -0.499 °C | -0.758 °C | -1 °C
CO[C@H]1C[C@@H]2CC[C@@H](C)[C@@](O)(O2)C(=O)C(=O)N2CCCC[C@H]2C(=O)O[C@H]([C@H](C)C[C@@H]2CC[C@@H](OC(=O)C(C)(CO)CO)[C@H](OC)C2)CC(=O)[C@H](C)/C=C(\C)[C@@H](O)[C@@H](OC)C(=O)[C@H](C)C[C@H](C)/C=C/C=C/C=C/1C [Temsirolimus (CCI-779)] | -0.393 °C | -0.361 °C | -2.07 °C | -1.36 °C
Cn1cc(-c2[nH]c3cc(NC(=O)[C@H](N)C4CCCCC4)cc4c3c2C=NNC4=O)cn1 [PF-477736] | -0.228 °C | -0.328 °C | -0.63 °C | -1.09 °C
O=C1NC(=O)/C(=C/c2ccc3c(c2)OC(F)(F)O3)S1 [AS-604850] | -0.284 °C | -0.526 °C | -0.905 °C | -0.999 °C
CS(=O)(=O)c1cccc(CNc2nc(Nc3ccc4c(c3)CCC(=O)N4)ncc2C(F)(F)F)c1 [PF-573228] | 0.148 °C | 0.0316 °C | -0.638 °C | -1.45 °C
